# Data: US20120037840A1, “USE OF MAGNETIC NANOPARTICLES TO REMOVE ENVIRONMENTAL CONTAMINANTS” (priority 2008, published 2012)
# Legend:
# [1] = cited from earlier work; for Kow: octanol-water coefficient; for log10(Kow): organic solvents used for extraction of HA-stabilized CNTs (FIG. 9)
# [2] = water solubility of the HOC; cited from earlier work
# [3] = benzalkonium chloride concentration of 6.0 g/L; cited from earlier work
# [4] = Sorption kinetics of HOCs onto Mag-PCMAs from contaminated water; format: physicochemical; details: 20 mg/L HA; initial diuron 34.3 μmol/L
# Description: Sorption kinetics of HOCs onto Mag-PCMAs from contaminated water. The HOC sorption kinetics onto Mag-PCMAs were determined by batch experiments. Aliquots (50 mg) of Mag-PCMAs were mixed in 10 ml glass tubes with 10.0 ml of an aqueous solution of each HOC. […] The caps of the tubes were lined with PTFE. The tubes were shaken at 60 rpm at 22±2° C. continuously. At the end of 5, 10, 20, 30, 45, 60, 90, 120, 180, 200, 360, 720, and 1440 minutes, one tube was taken out. A magnet was then used to separate the Mag-PCMAs from the aqueous phase. […] 1.0 ml of the supernatant was taken for HOC analysis on a high performance liquid chromatography (HPLC). The amount of HOC sorbed was calculated as the difference between the initial and final HOC mass in aqueous phase. To order to investigate the effect of the presence of HA on HOC sorption kinetics, diuron sorption kinetics were determined in the presence of 20 mg/L HA (organic carbon content), an environmental relevant HA concentration.^29 The initial diuron concentration was 34.3 μmol/L.
SMILES,Kow [1],Solubility [2] [µg/mL],log10(Kow) [1],further results
"CCNc1nc(Cl)nc(NC(C)C)n1 [Atrazine, 2-chloro-4-ethylamino-6-isopropylamino-1,3,5-triazine]",416,,,
"c1ccc(-c2ccccc2)cc1 [Biphenyl, biphenyl]",7079,44,,
"CN(C)C(=O)Nc1ccc(Cl)c(Cl)c1 [Diuron, 3-(3,4-dichlorofenyl)-1,1-dimethylurea]",660,180,,solubility of diuron relative to that in absence of the surfactant [3]: about 20 times; effect of presence of HA on sorption kinetics [4]: no significant effect
"c1ccc2ccccc2c1 [Naphthalene, naphthalene]",,225,,
"ClC=C(Cl)Cl [TCE, trichloroethene]",,,2.33,
CCCCCC [hexane],,,4.00,
CCCCCCCC [octane],,,5.18,
